Here are results for 8 molecules from ChEMBL document CHEMBL1201862, “PubChem BioAssay data set” (2004).

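These data come from cells grown in 96-well plates and exposed to compound for 48 hours at five concentrations. Abbreviation: GI50, concentration required for 50% inhibition of growth.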 Activity calls are given as the source filed them. Cut-off read from the data, not from the text of the source: active = GI50 up to about 1.1 µM and inactive = higher.

Some test systems named below: Malme-3M; U-251; SN12C; HL-60; IGROV-1; OVCAR-3; SK-MEL-28; HCT-15; SF-295; UACC-62; HOP-62; HT-29; A549; OVCAR-4; OVCAR-5; SR; 786-0; UACC-257; SNB-19.
Assay in all cases: inhibition of tumour cell growth, NCI panel, 48 h

`O=S(=O)(N/N=C/c1cccc(/C=N/NS(=O)(=O)c2ccccc2)c1)c1ccccc1`: the GI50 with Malme-3M is > 100 µM (inactive); in the test on U-251, 69.5 µM (inactive); in the test with SN12C, > 100 µM (inactive); in the test on HL-60, 63.4 µM (inactive); in the test on IGROV-1, 69.2 µM (inactive); in the test with OVCAR-3, 54.8 µM (inactive). In addition, the GI50 in the test with SK-MEL-28 was 88.7 µM (inactive); in the test with HCT-15, 80.5 µM; in the test on SF-295 it was 28 µM (inactive); in the test with UACC-62, 85.9 µM (inactive); with HOP-62, > 100 µM (inactive); with HT-29 it was 86.1 µM (inactive). Further, the GI50 was 79.6 µM (inactive) in the test with A549; 77.8 µM (inactive) with OVCAR-4; > 100 µM (inactive) with OVCAR-5; 58.1 µM (inactive) with SR; > 100 µM (inactive) in the test on 786-0; 39.3 µM (inactive) in the test with UACC-257.
In the case of `O=C(Nn1c(-c2ccccc2)nc2ccccc2c1=O)c1cccc([N+](=O)[O-])c1`, the GI50 in the test with U-251 was 62.4 µM (inactive); in the test with SN12C, > 100 µM (inactive); in the test with HL-60, > 100 µM (inactive); in the test on IGROV-1 it was > 100 µM (inactive); in the test on OVCAR-3, > 100 µM (inactive); with SK-MEL-28 it was 79.6 µM (inactive). In addition, the GI50 in the test on HCT-15 is 55.7 µM; in the test with UACC-62, 29.2 µM (inactive); in the test on HOP-62 it was > 100 µM (inactive); in the test on HT-29 it was 79.8 µM (inactive); with A549 it was 44.4 µM (inactive); with OVCAR-4, 86.1 µM (inactive). Further, the GI50 with OVCAR-5 is > 100 µM (inactive); in the test with SNB-19, 61.1 µM (inactive); with SR, 47.2 µM (inactive); in the test on 786-0, > 100 µM (inactive); in the test with UACC-257, > 100 µM (inactive).
As for `CCC1CCCCN1CC(C(C)=O)C(c1ccccc1)c1c(O)c2ccccc2oc1=O` (centres undefined), the GI50 is > 100 µM (inactive) in the test with Malme-3M; > 100 µM (inactive) with U-251; > 100 µM (inactive) with SN12C; 76.4 µM (inactive) with HL-60; > 100 µM (inactive) with IGROV-1; > 100 µM (inactive) in the test with OVCAR-3. The GI50 in the test with SK-MEL-28 is > 100 µM (inactive); in the test with HCT-15 it was greater than 100 µM; in the test with SF-295, > 100 µM (inactive); in the test with UACC-62, 82.2 µM (inactive); with HOP-62, > 100 µM (inactive); in the test on HT-29, > 100 µM (inactive). Moreover, the GI50 was > 100 µM (inactive) with A549; > 100 µM (inactive) in the test with OVCAR-4; 50.7 µM (inactive) with OVCAR-5; > 100 µM (inactive) in the test with SNB-19; 80.7 µM (inactive) in the test with SR; > 100 µM (inactive) with 786-0. In the test with UACC-257, the GI50 is > 100 µM (inactive).
Regarding `CCOC(=O)/C=C1\CCCC12OCCO2`, the GI50 in the test on Malme-3M is > 100 µM (inactive); with U-251 it was > 100 µM (inactive); in the test with SN12C, > 100 µM (inactive); in the test with HL-60 it was > 100 µM (inactive); in the test with IGROV-1, > 100 µM (inactive); with OVCAR-3, 28 µM (inactive). Besides, the GI50 with SK-MEL-28 is > 100 µM (inactive); with HCT-15 it was greater than 100 µM; in the test on UACC-62, > 100 µM (inactive); in the test on HOP-62 it was > 100 µM (inactive); with A549, > 100 µM (inactive); with OVCAR-4, > 100 µM (inactive). The GI50 with SNB-19 is > 100 µM (inactive); with SR, 25.8 µM (inactive); in the test with 786-0, > 100 µM (inactive); in the test on UACC-257, > 100 µM (inactive).
Regarding `COc1cc(/C=C2/C(=O)N(C(=O)OCC(C)C)C(Cc3cc(OC)c(OC)c(C)c3OC)C(=O)N2Cc2ccccc2)c(OC)c(C)c1OC` (centres undefined), the GI50 with Malme-3M was > 100 µM (inactive); in the test on U-251, > 100 µM (inactive); in the test with SN12C, > 100 µM (inactive); in the test with HL-60, 8.2 µM (inactive); with IGROV-1 it was > 100 µM (inactive); in the test with OVCAR-3 it was 79.4 µM (inactive). In addition, the GI50 in the test on SK-MEL-28 was > 100 µM (inactive); in the test on SF-295, 62.7 µM (inactive); with UACC-62, > 100 µM (inactive); in the test on HOP-62 it was 54.7 µM (inactive); with HT-29 it was > 100 µM (inactive); in the test on A549, > 100 µM (inactive). In addition, the GI50 in the test on OVCAR-4 was > 100 µM (inactive); in the test with OVCAR-5, > 100 µM (inactive); in the test on SNB-19 it was > 100 µM (inactive); in the test on SR, 25.1 µM (inactive); in the test on 786-0, > 100 µM (inactive); in the test with UACC-257, 15.9 µM (inactive).
For `O=C(Cn1c2c(c3ccccc31)CCCC2)N1CCCCC1`, the GI50 in the test with Malme-3M, in the test on SN12C, with HL-60, in the test on IGROV-1, in the test with OVCAR-3 and with SK-MEL-28 was > 100 µM (inactive) each time. Further, the GI50 in the test on HCT-15 was greater than 100 µM; in the test with SF-295, > 100 µM (inactive); in the test on UACC-62, > 100 µM (inactive); with HOP-62, > 100 µM (inactive); with HT-29, > 100 µM (inactive); with A549, > 100 µM (inactive). Also, the GI50 in the test with OVCAR-4, in the test on OVCAR-5, in the test with SNB-19, with SR, with 786-0 and with UACC-257 was > 100 µM (inactive) in each case.
In the case of `NC1CCC2(O)c3ccccc3C2C1` (centres undefined), the GI50 was > 100 µM (inactive) in the test with Malme-3M; > 100 µM (inactive) in the test on U-251; > 100 µM (inactive) in the test with SN12C; > 100 µM (inactive) in the test with HL-60; > 100 µM (inactive) with SK-MEL-28; greater than 100 µM in the test on HCT-15. In addition, the GI50 in the test with SF-295, in the test with UACC-62, in the test on HOP-62, in the test with HT-29, with A549 and in the test with OVCAR-4 was > 100 µM (inactive) each time. Besides, the GI50 with SNB-19, in the test with SR, in the test on 786-0 and in the test on UACC-257 was > 100 µM (inactive) each time.
Turning to `Cc1ccc(/N=N/c2c(C)nn(-c3ccccc3)c2-c2ccccc2)c(Br)c1`, the GI50 in the test with Malme-3M is > 100 µM (inactive); with SN12C, > 100 µM (inactive); in the test on HL-60 it was 4.3 µM (inactive); with IGROV-1 it was > 100 µM (inactive); in the test on OVCAR-3 it was > 100 µM (inactive); in the test on SK-MEL-28, > 100 µM (inactive). For the same molecule, the GI50 with HCT-15 was 28.2 µM; in the test on SF-295, 86.5 µM (inactive); in the test on UACC-62, 40 µM (inactive); in the test with HOP-62, > 100 µM (inactive); in the test with HT-29, 27.6 µM (inactive); in the test with A549, > 100 µM (inactive). For the same molecule, the GI50 in the test with OVCAR-4 was > 100 µM (inactive); in the test with SNB-19, > 100 µM (inactive); in the test on SR, 6.21 µM (inactive); in the test with 786-0 it was 32.6 µM (inactive); in the test with UACC-257, 79.8 µM (inactive).
